Laboratory results taken from patent US20020081572A1, “Three dimensional structure of paramyxovirus hemagglutinin neuraminidases and use thereof” (priority 2000, published 2002).

How the values were obtained:
[1] = target: Influenza Neuraminidase; test: Influenza neuraminidase fluorimetric assay; assay type: biochemical, influenza virus; conditions: 4-methylumbelliferyl-alpha-D-acetylneuraminic acid substrate 75 uM, pH 6.5, 37 C
[2] = target: Sendai Virus Hemagglutinin-Neuraminidase (Sendai virus, UniProt P03425); test: Paramyxovirus hemagglutinin-neuraminidase fluorimetric assay; assay type: biochemical
Chain of Sendai Virus Hemagglutinin-Neuraminidase (P03425 whole entry): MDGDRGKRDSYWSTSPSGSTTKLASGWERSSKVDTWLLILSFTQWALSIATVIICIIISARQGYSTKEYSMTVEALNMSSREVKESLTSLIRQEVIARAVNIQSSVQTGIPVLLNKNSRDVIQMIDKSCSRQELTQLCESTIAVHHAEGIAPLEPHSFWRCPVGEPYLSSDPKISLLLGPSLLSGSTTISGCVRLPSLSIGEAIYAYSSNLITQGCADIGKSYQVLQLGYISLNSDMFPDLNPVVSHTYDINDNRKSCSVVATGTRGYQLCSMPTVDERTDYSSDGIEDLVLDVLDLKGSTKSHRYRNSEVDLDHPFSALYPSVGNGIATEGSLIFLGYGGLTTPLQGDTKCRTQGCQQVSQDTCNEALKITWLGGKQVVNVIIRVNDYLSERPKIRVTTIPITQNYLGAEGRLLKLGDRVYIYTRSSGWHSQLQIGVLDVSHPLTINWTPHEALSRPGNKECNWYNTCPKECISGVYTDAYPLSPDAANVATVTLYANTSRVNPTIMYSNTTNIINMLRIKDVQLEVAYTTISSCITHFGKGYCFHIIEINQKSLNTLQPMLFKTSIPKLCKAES

Compound | IC50 [1] [µM] | IC50 [2] [µM]
CCN(CC)C(=O)C(NC(C)=O)C1CC(C(=O)O)CC1NC(=N)N (stereo not drawn) [Compound 1, alpha-3-[(Acetylamino)(diethylaminocarbonyl)methyl]-beta-4-[(aminoiminomethyl)amino]cyclopentane-1-carboxylic acid] | < 0.05 | > 300
CCC(CC)C(NC(C)=O)C1CC(C(=O)O)CC1NC(=N)N (single isomer, unassigned; (-)) [Compound 3, (-)t-3-[(1-Acetylamino-2-ethyl)butyl]-c-4-(aminoiminomethyl)aminocyclopentan-r-1-carboxylic acid] | < 0.05 | > 300
CCC(CC)C(NC(C)=O)C1C(NC(=N)N)CC(C(=O)O)C1O (single isomer, unassigned; (-)) [Compound 2, (-)-t-e-[(1-Acetylamino)(2-ethyl)butyl]-c-4-(aminoiminomethyl)amino-t-2-hydroxycyclopentan-r-1-carboxylic acid] | < 0.05 | > 300
